Where “and” joins values, the source holds several entries; their conditions need not be identical. Identical values can stand only once.
Details: Gas, Frequency=0.005 MHz, Spherical cavity resonance method

F/C=C/C(F)(F)F [trans-1,3,3,3-tetrafluoropropene]
Details | speed of sound
279.9 K, 79.55 kPa | 146.69 m/s and 146.7 m/s
279.9 K, 157.55 kPa | 143.78 m/s
279.9 K, 241.33 kPa | 140.43 m/s
279.91 K, 79.56 kPa | 146.7 m/s
279.91 K, 241.34 kPa | 140.43 m/s
279.92 K, 157.55 kPa | 143.79 m/s
279.92 K, 241.34 kPa | 140.43 m/s
299.96 K, 80.04 kPa | 152.13 m/s
299.96 K, 239.74 kPa | 147.27 m/s
299.97 K, 80.03 kPa | 152.13 m/s
299.97 K, 159.07 kPa | 149.78 m/s
299.97 K, 239.75 kPa | 147.27 m/s
299.97 K, 361.26 kPa | 143.22 m/s
299.98 K, 80.03 kPa | 152.13 m/s
299.98 K, 159.07 kPa | 149.78 m/s
299.98 K, 239.74 kPa | 147.27 m/s
299.98 K, 361.27 kPa | 143.22 m/s
319.93 K, 552.34 kPa | 144.79 m/s
319.94 K, 98.42 kPa | 156.86 m/s
319.94 K, 195.83 kPa | 154.47 m/s
319.94 K, 195.84 kPa | 154.47 m/s
319.94 K, 400.99 kPa | 149.11 m/s
319.94 K, 552.38 kPa | 144.78 m/s
319.94 K, 552.39 kPa | 144.78 m/s
319.95 K, 98.42 kPa | 156.87 m/s
319.95 K, 195.84 kPa | 154.47 m/s
319.95 K, 400.99 kPa | 149.1 m/s
319.96 K, 98.42 kPa | 156.86 m/s
319.97 K, 790.74 kPa | 137.11 m/s
319.97 K, 790.76 kPa | 137.11 m/s
319.98 K, 790.76 kPa | 137.11 m/s
319.98 K, 790.77 kPa | 137.11 m/s
319.99 K, 790.81 kPa | 137.11 m/s
339.94 K, 1198.3 kPa | 134.8 m/s and 134.79 m/s
339.95 K, 199.81 kPa | 159.81 m/s
339.95 K, 199.82 kPa | 159.81 m/s
339.95 K, 311.18 kPa | 157.48 m/s
339.95 K, 311.19 kPa | 157.48 m/s
339.95 K, 511.43 kPa | 153.07 m/s
339.95 K, 511.55 kPa | 153.07 m/s
339.95 K, 797.03 kPa | 146.18 m/s
339.95 K, 797.04 kPa | 146.18 m/s
339.95 K, 1001.8 kPa | 140.68 m/s
339.95 K, 1001.9 kPa | 140.68 m/s
339.95 K, 1198.4 kPa | 134.8 m/s
339.96 K, 99.31 kPa | 161.86 m/s
339.96 K, 200.05 kPa | 159.82 m/s
339.96 K, 311.18 kPa | 157.48 m/s
339.96 K, 400.04 kPa | 155.58 m/s and 155.58 m/s
339.96 K, 511.39 kPa | 153.07 m/s
339.96 K, 797.05 kPa | 146.18 m/s
339.96 K, 1001.9 kPa | 140.68 m/s
339.97 K, 99.31 kPa | 161.86 m/s
339.97 K, 200.05 kPa | 159.82 m/s
339.97 K, 200.06 kPa | 159.82 m/s
339.97 K, 400.04 kPa | 155.58 m/s
339.97 K, 799.59 kPa | 146.12 m/s
339.98 K, 595.08 kPa | 151.15 m/s
339.98 K, 799.46 kPa | 146.12 m/s
339.98 K, 799.52 kPa | 146.12 m/s
359.95 K, 99 kPa | 166.68 m/s
359.95 K, 99.01 kPa | 166.68 m/s
359.96 K, 99 kPa | 166.68 m/s
359.96 K, 99.01 kPa | 166.69 m/s and 166.68 m/s
359.96 K, 307 kPa | 163.12 m/s
359.96 K, 510.35 kPa | 159.46 m/s
359.96 K, 808.74 kPa | 153.75 m/s
359.96 K, 1598.8 kPa | 135.69 m/s
359.97 K, 307 kPa | 163.12 m/s
359.97 K, 511.03 kPa | 159.45 m/s
359.97 K, 808.65 kPa | 153.75 m/s
359.97 K, 808.68 kPa | 153.75 m/s
359.97 K, 1174.2 kPa | 146.04 m/s
359.97 K, 1174.3 kPa | 146.04 m/s
359.97 K, 1598.8 kPa | 135.7 m/s
359.97 K, 2002.9 kPa | 123.58 m/s and 123.58 m/s
359.98 K, 1598.8 kPa | 135.7 m/s
359.98 K, 2002.9 kPa | 123.58 m/s
379.99 K, 98.62 kPa | 171.32 m/s
379.99 K, 98.63 kPa | 171.32 m/s
379.99 K, 297.94 kPa | 168.44 m/s
379.99 K, 452.13 kPa | 166.16 m/s
379.99 K, 784.29 kPa | 161.02 m/s
379.99 K, 784.34 kPa | 161.02 m/s
379.99 K, 1195.5 kPa | 154.18 m/s
379.99 K, 1195.6 kPa | 154.18 m/s
379.99 K, 2008.2 kPa | 138.61 m/s
380 K, 98.61 kPa | 171.32 m/s
380 K, 98.63 kPa | 171.32 m/s
380 K, 297.93 kPa | 168.44 m/s
380 K, 452.13 kPa | 166.16 m/s
380 K, 784.28 kPa | 161.02 m/s
380 K, 1195.5 kPa | 154.18 m/s
380 K, 1608.3 kPa | 146.68 m/s
380 K, 2008.2 kPa | 138.61 m/s
380 K, 2215.6 kPa | 134.03 m/s
380 K, 2215.7 kPa | 134.03 m/s
380 K, 2385.9 kPa | 130 m/s
380 K, 2386 kPa | 130 m/s
380 K, 2606.5 kPa | 124.35 m/s
380 K, 2606.6 kPa | 124.35 m/s
380.01 K, 2606.6 kPa | 124.35 m/s
380.01 K, 2822.2 kPa | 118.21 m/s
380.01 K, 2822.3 kPa | 118.22 m/s
380.02 K, 2822.3 kPa | 118.22 m/s
401.99 K, 98.41 kPa | 176.35 m/s
401.99 K, 98.44 kPa | 176.35 m/s
401.99 K, 98.45 kPa | 176.35 m/s
401.99 K, 98.46 kPa | 176.35 m/s
402 K, 98.39 kPa | 176.35 m/s
402 K, 98.4 kPa | 176.35 m/s
402 K, 98.42 kPa | 176.35 m/s
402 K, 98.43 kPa | 176.35 m/s
402 K, 98.44 kPa | 176.35 m/s
402 K, 98.45 kPa | 176.35 m/s
402 K, 98.46 kPa | 176.35 m/s
402 K, 299.24 kPa | 173.94 m/s
402 K, 299.25 kPa | 173.94 m/s
402 K, 299.26 kPa | 173.94 m/s
402 K, 503.14 kPa | 171.43 m/s
402 K, 504.13 kPa | 171.42 m/s
402 K, 504.78 kPa | 171.41 m/s
402 K, 504.99 kPa | 171.4 m/s
402 K, 505.27 kPa | 171.4 m/s
402 K, 505.76 kPa | 171.4 m/s
402 K, 505.81 kPa | 171.4 m/s
402 K, 505.96 kPa | 171.4 m/s
402 K, 506.02 kPa | 171.4 m/s
402.01 K, 502.88 kPa | 171.44 m/s
402.01 K, 503 kPa | 171.43 m/s
402.01 K, 505.02 kPa | 171.41 m/s
402.01 K, 793.53 kPa | 167.78 m/s
402.01 K, 793.54 kPa | 167.77 m/s and 167.77 m/s
402.01 K, 1189.8 kPa | 162.56 m/s and 162.56 m/s
402.01 K, 1595.9 kPa | 156.94 m/s
402.01 K, 1596 kPa | 156.94 m/s
402.02 K, 1595.8 kPa | 156.94 m/s and 156.94 m/s
402.02 K, 1595.9 kPa | 156.94 m/s
402.02 K, 1596 kPa | 156.94 m/s
402.02 K, 1596.1 kPa | 156.94 m/s
402.02 K, 1596.2 kPa | 156.94 m/s
402.02 K, 1596.3 kPa | 156.94 m/s
402.02 K, 1996.4 kPa | 151.09 m/s
402.03 K, 1996.4 kPa | 151.09 m/s and 151.09 m/s
402.03 K, 2385.1 kPa | 145.09 m/s
402.03 K, 2385.2 kPa | 145.1 m/s and 145.1 m/s
402.04 K, 2832 kPa | 137.75 m/s and 137.75 m/s
402.04 K, 2832.1 kPa | 137.75 m/s and 137.75 m/s
419.97 K, 100.24 kPa | 180.17 m/s
419.97 K, 100.26 kPa | 180.17 m/s
419.97 K, 100.28 kPa | 180.17 m/s
419.97 K, 298.93 kPa | 178.09 m/s
419.98 K, 100.2 kPa | 180.17 m/s
419.98 K, 100.21 kPa | 180.17 m/s
419.98 K, 100.22 kPa | 180.17 m/s
419.98 K, 100.23 kPa | 180.17 m/s
419.98 K, 100.24 kPa | 180.17 m/s
419.98 K, 100.25 kPa | 180.17 m/s
419.98 K, 100.27 kPa | 180.17 m/s
419.98 K, 100.28 kPa | 180.17 m/s
419.98 K, 298.92 kPa | 178.09 m/s
419.98 K, 298.93 kPa | 178.09 m/s
419.98 K, 476.26 kPa | 176.21 m/s
